For one test, the system named is U-87 MG. Nature of the test: Growth inhibition of human U87MG cells at 2.5 uM after 72 hrs by SRB assay relative to control. The format is functional, U-87MG ATCC. As to conditions: read-out: GI.
The subject of another test is U2OS. The test is described as follows: Growth inhibition of human U2OS cells at 2.5 uM after 72 hrs by SRB assay relative to control. The format is functional. As to conditions: read-out: GI.
The test system of test [1] is HT-1080. Nature of the test: Growth inhibition of human HT1080 cells at 2.5 uM after 72 hrs by SRB assay relative to control. The format is functional. As to conditions: HT-1080, 72 h, read-out: GI.
The test system of test [2] is HT-1080. Nature of the test: Effect on HPSE1 mRNA expression in human HT1080 cells assessed as HPSE1 mRNA level at 2.5 uM after 24 hrs by qPCR method (reference value: 100%). It is filed as functional.
Test [3] concerns HT-1080. Nature of the test: Effect on growth factor mRNA expression in human HT1080 cells assessed as VEGF mRNA level at 2.5 uM after 24 hrs by qPCR method (reference value: 100%). The format is functional.
The subject of test [4] is HT-1080. The test is described as follows: Effect on MMP9 mRNA expression in human HT1080 cells assessed as MMP9 mRNA level at 2.5 uM after 24 hrs by qPCR method (reference value: 100%). It is filed as functional.
The test system of test [5] is HT-1080. The test is described as follows: Effect on growth factor mRNA expression in human HT1080 cells assessed as FGF1 mRNA level at 2.5 uM after 24 hrs by qPCR method (reference value: 100%). It is filed as functional.
Test [6] has as its system HT-1080. Nature of the test: Effect on growth factor mRNA expression in human HT1080 cells assessed as FGF2 mRNA level at 2.5 uM after 24 hrs by qPCR method (reference value: 100%). It is filed as functional.
The target in the next test is T1, Heparanase (Mus musculus, UniProt Q6YGZ1).
T1 sequence (Q6YGZ1 whole entry): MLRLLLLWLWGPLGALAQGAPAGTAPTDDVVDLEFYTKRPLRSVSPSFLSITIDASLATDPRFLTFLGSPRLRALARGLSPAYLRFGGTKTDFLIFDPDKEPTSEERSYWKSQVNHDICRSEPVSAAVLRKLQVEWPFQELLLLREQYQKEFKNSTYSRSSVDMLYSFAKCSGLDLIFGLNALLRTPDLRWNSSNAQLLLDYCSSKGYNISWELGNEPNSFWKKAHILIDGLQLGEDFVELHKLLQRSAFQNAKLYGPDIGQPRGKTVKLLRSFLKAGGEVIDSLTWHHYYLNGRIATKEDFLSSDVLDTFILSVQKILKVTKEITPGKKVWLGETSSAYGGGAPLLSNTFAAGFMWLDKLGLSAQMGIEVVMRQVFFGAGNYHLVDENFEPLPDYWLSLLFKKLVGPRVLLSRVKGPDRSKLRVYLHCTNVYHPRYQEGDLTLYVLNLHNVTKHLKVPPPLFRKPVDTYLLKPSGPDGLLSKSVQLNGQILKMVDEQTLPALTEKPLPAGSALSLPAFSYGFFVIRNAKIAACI
The test is described as follows: Inhibition of mouse B16-BL6 cells derived heparanase using [3H]HS as substrate after 6 hrs by size exclusion chromatography based liquid scintillation counting method.

Test [7] relates to HT-1080. The test is described as follows: Anti-invasive activity against human HT1080 cells at 2.5 uM incubated for 24 hrs measured for 24 hrs by crystal violet staining based inverted microscopic method relative to control. It is filed as functional.
For test [8], the system named is HT-1080. As to conditions: Homo sapiens, 2.5 uM.
Description: Inhibition of cell adhesion in human HT1080 cells at 2.5 uM incubated for 18 to 20 hrs by crystal violet staining based assay

The source made the active and inactive calls. The calls are words filed in the database; no cut-off is given here.

As for `O=C(Nc1cccc(C(=O)Nc2cc(C(=O)Nc3ccc4c(S(=O)(=O)O)cccc4c3S(=O)(=O)O)n(C3CC3)c2)c1)Nc1cccc(C(=O)Nc2cc(C(=O)Nc3ccc4c(S(=O)(=O)O)cccc4c3S(=O)(=O)O)n(C3CC3)c2)c1`, the inhibition of growth at 2.5 µM in the test on U-87 MG, with U2OS and in the test on HT-1080 [1] was under 50% in each case.

Consider `Cc1c(NC(=O)c2cccc(NC(=O)Nc3cccc(C(=O)Nc4cc(C(=O)Nc5ccc6c(S(=O)(=O)O)cccc6c5S(=O)(=O)O)n(C)c4C)c3)c2)cc(C(=O)Nc2ccc3c(S(=O)(=O)O)cccc3c2S(=O)(=O)O)n1C`, for which the inhibition of growth at 2.5 µM in the test on U-87 MG, in the test with U2OS and in the test with HT-1080 [1] was under 50% in each case.

With `Cn1cc(NC(=O)Nc2cc(C(=O)Nc3cc(C(=O)Nc4ccc5c(S(=O)(=O)[O-])cccc5c4S(=O)(=O)[O-])n(C)c3)n(C)c2)cc1C(=O)Nc1cc(C(=O)Nc2ccc3c(S(=O)(=O)[O-])cccc3c2S(=O)(=O)[O-])n(C)c1.[Na+].[Na+].[Na+].[Na+]`, the Activity with HT-1080 [2] is 1%; in the test with HT-1080 [3] it was 100%; with HT-1080 [4] it was 100%; in the test with HT-1080 [5] it was 44%; in the test with HT-1080 [6], 86%.

In the case of `Cc1ccc(C(=O)Nc2ccc(S(=O)(=O)O)c3cc(S(=O)(=O)O)cc(S(=O)(=O)O)c23)cc1NC(=O)c1cccc(NC(=O)Nc2cccc(C(=O)Nc3cc(C(=O)Nc4ccc(S(=O)(=O)O)c5cc(S(=O)(=O)O)cc(S(=O)(=O)O)c45)ccc3C)c2)c1` [SURAMIN], the Ki at Heparanase was determined as 48 µM.

With `Cn1cc(NC(=O)c2cccc(NC(=O)Nc3cccc(C(=O)Nc4cc(C(=O)Nc5ccc6c(S(=O)(=O)O)cccc6c5S(=O)(=O)O)n(C)c4)c3)c2)cc1C(=O)Nc1ccc2c(S(=O)(=O)O)cccc2c1S(=O)(=O)O`, the inhibition of growth at 2.5 µM with U-87 MG, in the test on U2OS and in the test with HT-1080 [1] was under 50% throughout.

As to `Cc1ccc(C(=O)Nc2ccc3c(S(=O)(=O)O)cccc3c2S(=O)(=O)O)cc1NC(=O)c1cc(NC(=O)Nc2cc(C(=O)Nc3cc(C(=O)Nc4ccc5c(S(=O)(=O)O)cccc5c4S(=O)(=O)O)ccc3C)n(C)c2)cn1C`, the inhibition of growth at 2.5 µM in the test on U-87 MG, in the test on U2OS and with HT-1080 [1] was under 50% each time.

With `Cn1cc(NC(=O)Nc2cc(C(=O)Nc3cccc(C(=O)Nc4ccc5c(S(=O)(=O)[O-])cccc5c4S(=O)(=O)[O-])c3)n(C)c2)cc1C(=O)Nc1cccc(C(=O)Nc2ccc3c(S(=O)(=O)[O-])cccc3c2S(=O)(=O)[O-])c1.[Na+].[Na+].[Na+].[Na+]`, the Activity in the test on HT-1080 [2] is on record as 4%; in the test with HT-1080 [3] it was 85%; with HT-1080 [7], over 90%; in the test on HT-1080 [4], 80%; in the test on HT-1080 [5] it was 87%; with HT-1080 [6], 98%. The inhibition of growth at 2.5 µM with U-87 MG, in the test with U2OS and in the test on HT-1080 [1] was under 50% throughout. Also, the inhibition entry in the test on HT-1080 [8] was “Active”.

As for `Cn1cc(NC(=O)c2cc(NC(=O)Nc3cc(C(=O)Nc4cc(C(=O)Nc5ccc6c(S(=O)(=O)O)cccc6c5S(=O)(=O)O)n(C)c4)cc(C(F)(F)F)c3)cc(C(F)(F)F)c2)cc1C(=O)Nc1ccc2c(S(=O)(=O)O)cccc2c1S(=O)(=O)O`, the inhibition of growth at 2.5 µM with U-87 MG, in the test on U2OS and in the test on HT-1080 [1] was under 50% throughout.

`Cn1cc(NC(=O)c2ccc(F)c(NC(=O)Nc3cc(C(=O)Nc4cc(C(=O)Nc5ccc6c(S(=O)(=O)O)cccc6c5S(=O)(=O)O)n(C)c4)ccc3F)c2)cc1C(=O)Nc1ccc2c(S(=O)(=O)O)cccc2c1S(=O)(=O)O`: the inhibition of growth at 2.5 µM in the test with U-87 MG, with U2OS and in the test with HT-1080 [1] was under 50% throughout.

The values above are taken from ChEMBL document CHEMBL4177565, “Arylamidonaphtalene sulfonate compounds as a novel class of heparanase inhibitors” (Bioorg Med Chem Lett, 2017).
